Experimental data from US20200405715A1, “COMPOSITIONS AND METHODS FOR TREATING CANCER AND INFLAMMATORY DISEASES” (University of Pittsburgh - Of the Commonwealth System of …, priority 2016, published 2020).

Columns and labels:
HepG2 cells = experiment: HepG2 cell proliferation (CellTiter-Glo Luminescent Cell Viability Assay); format: cell-based; conditions: 96 h
Description: Cell proliferation were then measured by CellTiter-Glo® Luminescent Cell Viability Assay (n=3).
4KHepG2 cells were seeded in 96 well plates for overnight. Compounds listed in Table 3 were then added to each well at various concentrations. 96 h later, cell proliferation was measured by ATP production using a CellTiter-Glo® Luminescent Cell Viability Assay (Promega).
3-(pentylamino)-5-phenylcyclohex-2-en-1-one was modified by adding a different sidechain. These novel compounds were tested further in an in vitro proliferation assay using ATPLite Cell Proliferation kit. […] Others lost activity in reducing Cullin Neddylation and inhibiting cell proliferation (FIG. 3C-D).

HepG2 tumor tissue = experiment: PD/PK study, tumor tissue immunoblotting after single oral dose; format: in vivo, nude mice
Description: Nude mice were implanted with HepG2 cells (10^6 cells) through subcutaneous injection. Five weeks later, once tumor size reaches 0.3 cm^3, mice were randomized and given 1 dose of 3-(decylamino)-5-phenylcyclohex-2-en-1-one (15 mg/kg) by oral gavage. Mice were then euthanized, plasma and tumor tissue were isolated for analysis. Tumor tissue were grinded and assayed for protein immunoblotting (n=3-4).
A PD/PK study was also performed. Mice were implanted with HepG2 cells (10^6 cells) through subcutaneous injection. 5 weeks later, once tumor size reached 0.3 cm^3, mice were randomized and given 1 dose of 3-(decylamino)-5-phenylcyclohex-2-en-1-one (15 mg/kg) by oral gavage (FIG. 9A). […] NRF2 protein levels peaked 4 h after administration of BC1558 and started to decline by 8-24 h post-dose. The timing of CDT1 accumulation was compared to NRF2, peaking 4 h after 3-(decylamino)-5-phenylcyclohex-2-en-1-one administration.

[1] = tested on: SCF substrates p27, NRF2 and CDT1; experiment: SCF substrates, protein immunoblotting in HepG2 cells; format: cell-based; conditions: 10 μM, various times (FIG. 6A)
[2] = single dose 15 mg/kg oral gavage, tumor tissue

In the case of CCCCCCCCCCNC1=CC(=O)CC(c2ccccc2)C1 (stereo not shown) [BC1558, 3-(decylamino)-5-phenylcyclohex-2-en-1-one], the inhibiting cell proliferation (HepG2 cells; various concentrations (FIG. 3D)) is reported as “exhibited activity”, the IC50 (HepG2 cells; Homo sapiens, ATP production, n=3, read-out: IC50Proliferation) is reported as less than 1000 nM and the “phosphorylated CHK1 (Ser 317), DNA damage in the tumor” value (HepG2 tumor tissue; at 8 h after a single administration, 15 mg/kg oral gavage) is reported as “increased levels”. The “steady state levels of NRF2 and CDT1” value (HepG2 tumor tissue; [2]) was “time-dependent increase”, the “time at which NRF2 protein levels started to decline post-dose” value (HepG2 tumor tissue; [2]) was 8 to 24 h and the “time of maximal effect on NEDD8-cullin levels post-dose” value (HepG2 tumor tissue; [2]) was 2 to 4 h. For the same compound, the “time of peak CDT1 accumulation after administration” value (HepG2 tumor tissue; [2]) was 4 h, the “time of peak NRF2 protein levels after administration” value (HepG2 tumor tissue; [2]) was 4 h and the “time to decrease of NEDD8-cullin levels after administration” value (HepG2 tumor tissue; single dose 15 mg/kg oral gavage, tumor tissue (FIG. 9B)) was no more than 1 h. The “SCF substrates p27, NRF2 and CDT1” value [1] was “increased”.
